In PMC7769008 (Journal of medicinal chemistry, 2020):

settings: pH 7.4

SMILES | PAMPA [×10⁻⁶ cm/s]
CC(=O)Nc1ccc2c(c1)c(=O)n(CCc1ccccc1)c1n[nH]c(=S)n21 [Compound 44, N-(5-Oxo-4-phenethyl-1-thioxo-1,2,4,5-tetrahydro-[1,2,4]-triazolo[4,3-a]quinazolin-7-yl)acetamide] | 253
O=C(Cc1cccc(Cl)c1)NCCCn1c(=O)c2cc(F)ccc2n2c(=S)[nH]nc12 [Compound 124, 2-(3-Chlorophenyl)-N-(3-(7-fluoro-5-oxo-1-thioxo-1,2-dihydro-[1,2,4]triazolo[4,3-a]quinazolin-4(5H)-yl)propyl)acetamide] | 861
CN(C)c1ccc2c(c1)c(=O)n(CCc1ccccc1)c1n[nH]c(=S)n21 [Compound 45, 7-(Dimethylamino)-4-phenethyl-1-thioxo-2,4-dihydro-[1,2,4]-triazolo[4,3-a]quinazolin-5(1H)-one] | 356
O=c1c2cc(Br)ccc2n2c(=S)[nH]nc2n1CCc1ccccc1 [Compound 41, 7-Bromo-4-phenethyl-1-thioxo-2,4-dihydro-[1,2,4]triazolo[4,3-a]quinazolin-5(1H)-one] | 162
O=c1c2cc(F)ccc2n2c(=S)[nH]nc2n1CCc1ccc(Cl)cc1 [Compound 82, 4-(4-Chlorophenethyl)-7-fluoro-1-thioxo-2,4-dihydro-[1,2,4]-triazolo[4,3-a]quinazolin-5(1H)-one] | <1
CC(C)(C)OC(=O)N1CC(CCn2c(=O)c3cc(F)ccc3n3c(=S)[nH]nc23)C1 [Compound 86, tert-Butyl 3-(2-(7-fluoro-5-oxo-1-thioxo-1,2-dihydro-[1,2,4]-triazolo[4,3-a]quinazolin-4(5H)-yl)ethyl)azetidine-1-carboxylate] | 229
O=C(Cc1ccccn1)NCCCn1c(=O)c2cc(F)ccc2n2c(=S)[nH]nc12 [Compound 136, N-(3-(7-Fluoro-5-oxo-1-thioxo-1,2-dihydro-[1,2,4]triazolo[4,3-a]-quinazolin-4(5H)-yl)propyl)-2-(pyridine-2-yl)acetamide] | 68.0
O=c1c2cc(F)ccc2n2c(=S)[nH]nc2n1CCN1CCOCC1 [Compound 90, 7-Fluoro-4-(2-morpholinoethyl)-1-thioxo-2,4-dihydro-[1,2,4]-triazolo[4,3-a]quinazolin-5(1H)-one] | 67.0
CC(C)(C)OC(=O)Nc1ccc(CC(=O)NCCCn2c(=O)c3cc(F)ccc3n3c(=S)[nH]nc23)cc1 [Compound 135, tert-Butyl (4-(2-((3-(7-Fluoro-5-oxo-1-thioxo-1,2-dihydro-[1,2,4]-triazolo[4,3-a]quinazolin-4(5H)-yl)propyl)amino)-2-oxoethyl)-phenyl)carbamate] | 910
O=c1c2cc(F)ccc2n2c(=S)[nH]nc2n1Cc1ccccc1 [Compound 52, 4-Benzyl-7-fluoro-1-thioxo-2,4-dihydro-[1,2,4]triazolo[4,3-a]-quinazolin-5(1H)-one] | 841
CC(=O)NCCCn1c(=O)c2cc(F)ccc2n2c(=S)[nH]nc12 [Compound 73, N-(3-(7-Fluoro-5-oxo-1-thioxo-1,2-dihydro-[1,2,4]triazolo[4,3-a]-quinazolin-4(5H)-yl)propyl)acetamide] | 18.0
CC(C)(C)OC(=O)NCCCCCC(=O)NCCCn1c(=O)c2cc(F)ccc2n2c(=S)[nH]nc12 [Compound 101, tert-Butyl (6-((3-(7-fluoro-5-oxo-1-thioxo-1,2-dihydro-[1,2,4]-triazolo[4,3-a]quinazolin-4(5H)-yl)propyl)amino)-6-oxohexyl)-carbamate] | 405
O=C(NCCCn1c(=O)c2cc(F)ccc2n2c(=S)[nH]nc12)c1ccccc1 [Compound 74, N-(3-(7-Fluoro-5-oxo-1-thioxo-1,2-dihydro-[1,2,4]triazolo[4,3-a]-quinazolin-4(5H)-yl)propyl)benzamide] | 267
O=c1c2cc(F)ccc2n2cnnc2n1CCc1ccccc1 [Compound 18, 7-Fluoro-4-phenethyl-[1,2,4]triazolo[4,3-a]quinazolin-5(4H)-one] | 924
O=c1c2cc(F)ccc2n2c(=S)[nH]nc2n1CCN1CCCCC1 [Compound 88, 7-Fluoro-4-(2-(piperidin-1-yl)ethyl)-1-thioxo-2,4-dihydro-[1,2,4]-triazolo[4,3-a]quinazolin-5(1H)-one] | 358
O=c1c2cc(F)ccc2n2c(=S)[nH]nc2n1CCCO [Compound 66, 7-Fluoro-4-(3-hydroxypropyl)-1-thioxo-2,4-dihydro-[1,2,4]-triazolo[4,3-a]quinazolin-5(1H)-one] | 222
COc1ccc(CC(=O)NCCCn2c(=O)c3cc(F)ccc3n3c(=S)[nH]nc23)cc1 [Compound 130, N-(3-(7-Fluoro-5-oxo-1-thioxo-1,2-dihydro-[1,2,4]triazolo[4,3-a]-quinazolin-4(5H)-yl)propyl)-2-(4-methoxyphenyl)acetamide] | 233
O=C(Cc1ccncc1)NCCCn1c(=O)c2cc(F)ccc2n2c(=S)[nH]nc12 [Compound 138, N-(3-(7-Fluoro-5-oxo-1-thioxo-1,2-dihydro-[1,2,4]triazolo[4,3-a]-quinazolin-4(5H)-yl)propyl)-2-(pyridine-4-yl)acetamide] | <1

SMILES | PAMPA [×10⁻⁶ cm/s]
O=c1c2ccncc2n2c(=S)[nH]nc2n1CCc1ccccc1 [Compound 50, 4-Phenethyl-1-thioxo-2,4-dihydropyrido[4,3-e][1,2,4]triazolo-[4,3-a]pyrimidin-5(1H)-one] | 202
O=c1c2cc(Cl)ccc2n2c(=S)[nH]nc2n1CCC(F)(F)F [Compound 55, 7-Chloro-1-thioxo-4-(3,3,3-trifluoropropyl)-2,4-dihydro-[1,2,4]-triazolo[4,3-a]quinazolin-5(1H)-one] | 257
O=c1c2cccc(F)c2n2c(=S)[nH]nc2n1CCc1ccccc1 [Compound 48, 9-Fluoro-4-phenethyl-1-thioxo-2,4-dihydro-[1,2,4]triazolo[4,3-a]quinazolin-5(1H)-one] | 141
CCn1c(=O)c2ccccc2n2c(=S)[nH]nc12 [Compound 20, 4-Ethyl-1-thioxo-2,4-dihydro-[1,2,4]triazolo[4,3-a]quinazolin-5(1H)-one] | 427
O=C(Cc1ccccc1C(F)(F)F)NCCCn1c(=O)c2cc(F)ccc2n2c(=S)[nH]nc12 [Compound 131, N-(3-(7-Fluoro-5-oxo-1-thioxo-1,2-dihydro-[1,2,4]triazolo[4,3-a]-quinazolin-4(5H)-yl)propyl)-2-(2-(trifluoromethyl)phenyl)-acetamide] | 825
CN1CCN(CC(=O)NCCCn2c(=O)c3cc(F)ccc3n3c(=S)[nH]nc23)CC1 [Compound 117, N-(3-(7-Fluoro-5-oxo-1-thioxo-1,2-dihydro-[1,2,4]triazolo[4,3-a]-quinazolin-4(5H)-yl)propyl)-2-(4-methylpiperazin-1-yl)acetamide] | <1
O=c1c2cc(F)ccc2n2c(=S)[nH]nc2n1CCc1ccccc1 [Compound 40, 7-Fluoro-4-phenethyl-1-thioxo-2,4-dihydro-[1,2,4]triazolo[4,3-a]quinazolin-5(1H)-one] | 77.0
O=c1c2cc(F)ccc2n2c(=S)[nH]nc2n1CCC1CCC(F)(F)CC1 [Compound 93, 4-(2-(4,4-Difluorocyclohexyl)ethyl)-7-fluoro-1-thioxo-2,4-dihydro-[1,2,4]triazolo[4,3-a]quinazolin-5(1H)-one] | 201
O=c1c2ccc(F)cc2n2c(=S)[nH]nc2n1CCc1ccccc1 [Compound 47, 8-Fluoro-4-phenethyl-1-thioxo-2,4-dihydro-[1,2,4]triazolo[4,3-a]quinazolin-5(1H)-one] | 91.0
O=C(O)CCC(=O)NCCCn1c(=O)c2cc(F)ccc2n2c(=S)[nH]nc12 [Compound 106, 4-((3-(7-Fluoro-5-oxo-1-thioxo-1,2-dihydro-[1,2,4]triazolo[4,3-a]quinazolin-4(5H)-yl)propyl)amino)-4-oxobutanoic Acid] | <1
O=C(NCCCn1c(=O)c2cc(F)ccc2n2c(=S)[nH]nc12)C1CCOCC1 [Compound 115, N-(3-(7-Fluoro-5-oxo-1-thioxo-1,2-dihydro-[1,2,4]triazolo[4,3-a]-quinazolin-4(5H)-yl)propyl)tetrahydro-2H-pyran-4-carboxamide] | 8.0
O=C(Cc1ccccc1)NCCCn1c(=O)c2cc(F)ccc2n2c(=S)[nH]nc12 [Compound 120, N-(3-(7-Fluoro-5-oxo-1-thioxo-1,2-dihydro-[1,2,4]triazolo[4,3-a]-quinazolin-4(5H)-yl)propyl)-2-phenylacetamide] | 248
CNC(=S)N1CN(CCc2ccccc2)C(=O)c2cc(F)ccc21 [Compound 62, 6-Fluoro-N-methyl-4-oxo-3-phenethyl-3,4-dihydroquinazoline-1(2H)-carbothioamide] | 161
O=C(Cc1cccnc1)NCCCn1c(=O)c2cc(F)ccc2n2c(=S)[nH]nc12 [Compound 137, N-(3-(7-Fluoro-5-oxo-1-thioxo-1,2-dihydro-[1,2,4]triazolo[4,3-a]-quinazolin-4(5H)-yl)propyl)-2-(pyridine-3-yl)acetamide] | 21.0
NS(=O)(=O)CCCC(=O)NCCCn1c(=O)c2cc(F)ccc2n2c(=S)[nH]nc12 [Compound 107, N-(3-(7-Fluoro-5-oxo-1-thioxo-1,2-dihydro-[1,2,4]triazolo[4,3-a]-quinazolin-4(5H)-yl)propyl)-4-sulfamoylbutanamide] | 3.0
COc1ccccc1CC(=O)NCCCn1c(=O)c2cc(F)ccc2n2c(=S)[nH]nc12 [Compound 128, N-(3-(7-Fluoro-5-oxo-1-thioxo-1,2-dihydro-[1,2,4]triazolo[4,3-a]-quinazolin-4(5H)-yl)propyl)-2-(2-methoxyphenyl)acetamide] | 379
Nc1nnc2n(CCc3ccccc3)c(=O)c3cc(F)ccc3n12 [Compound 16, 1-Amino-7-fluoro-4-phenethyl-[1,2,4]triazolo[4,3-a]quinazolin-5(4H)-one] | 885
CC(CN(C)C)n1c(=O)c2cc(F)ccc2n2c(=S)[nH]nc12 (stereo not drawn) [Compound 71, 4-(1-(Dimethylamino)propan-2-yl)-7-fluoro-1-thioxo-2,4-dihydro-[1,2,4]triazolo[4,3-a]quinazolin-5(1H)-one] | 186
